Assay results from patent US20080289052A1, “Method of Constructing Animal Having Cancer Cells Transplanted Thereinto” (priority 2004, published 2008).

Tested on: cancer cells A-549
Assay: Anti-tumor agent test in nude mice transplanted subcutaneously with an A-549 cancer cells sheet
Assay type: in vivo
Protocol: A cell culture base was coated with the temperature-responsive polymer poly(N-isopropylacrylamide) in an amount of 1.9 μg/cm^2 and the cancer cells A-549 was cultivated (2×10^4 cells were seeded; 37° C. in 5% CO2). Three days later, the cancer cells (A-549) on the culture base were confirmed to have become confluent; thereafter, a poly(vinylidene difluoride) [PVDF] membrane not coated with a fibrin gel was gently placed over the cultured cell sheet so that the cultured cancer cells adhered to it; then, the cell culture base was cooled at 20° C. for 60 minutes. After the cooling, a sheet of cancer cells (7 mm×17 mm×2 mm; 5×10^5 cells) was detached together with PVDF membrane. The back of each of 10 nude mice was incised linearly beneath the skin and the subcutaneous tissue was detached with forceps to create a pocket, into which the above-described cancer cells sheet was inserted. After the inserting, the incised part was sutured to complete the transplantation. The dimensions of the tumor that developed after the transplantation were measured over the skin with a micrometer and the volume of the tumor was calculated assuming that it was an ellipsoid. The volume of the tumor was also calculated, this time on the assumption that it was a cylindroid (volume of cylindroid=n/4×major axis of the tumor×minor axis of the tumor×thickness of the tumor). Four weeks after the transplantation, the mean volume of ellipsoid was 578.7+322.8 mm^3, the mean volume of cylindroid was 1258.7+897.9 mm^3, and the mean tumor weight was 785.4±394 mg. The decrease in the tumor volume that occurred immediately after the transplantation as shown in FIG. 1 (tumor assumed as an ellipsoid) and FIG. 2 (as a cylindroid) was absent and the tumor grew bigger as more days elapsed after the transplantation.
The cancer cells transplanted animals prepared in Example 2 were administered a total of four times on a once-a-week basis with 3 mg of 5-fluorouracil (5-FU), a known anti-tumor agent, through the tail vein as it was dissolved in 0.3 ml of 1% ethyl alcohol containing physiological saline. Four weeks after the administration, the mean volume of ellipsoid was 279.6±127.1 mm^3, the mean volume of cylindroid was 619.3±262.9 mm^3, and the mean tumor weight was 369.3±123 mg. As it turned out, the cancer cells transplanted animals described in the present invention got the volume and weight of the tumor to be reduced by receiving the anti-tumor agent. Obviously, the cancer cells transplanted animals of the present invention are useful in selecting an effective anti-tumor agent.

[1] = A-549 cell sheet transplanted nude mice of Example 2, 3 mg through the tail vein once a week, four times, four weeks after the administration

## O=c1[nH]cc(F)c(=O)[nH]1 [5-fluorouracil]
[1]
  mean tumor weight: 369.3 ± 123 mg
  mean volume of cylindroid (tumor volume): 619.3±262.9 mm^3
  mean volume of ellipsoid (tumor volume): 279.6±127.1 mm^3
A-549 cell sheet transplanted nude mice, compared with untreated animals of Example 2
  volume and weight of the tumor (effect of receiving the anti-tumor agent): reduced
